Data reported in ChEMBL document CHEMBL4507319 (2021).

Columns and labels:
[1] = biological target: Calcium/calmodulin-dependent protein kinase type 1B (Homo sapiens) (UniProt Q6P2M8); conditions: Compound concentration 1000.0 nM
[2] = biological target: Serine/threonine-protein kinase MRCK gamma (Homo sapiens) (UniProt Q6DT37); conditions: Compound concentration 1000.0 nM
[3] = biological target: T1, Dual specificity tyrosine-phosphorylation-regulated kinase 2 (Homo sapiens) (UniProt Q92630); conditions: Compound concentration 1000.0 nM
T1 sequence (whole entry): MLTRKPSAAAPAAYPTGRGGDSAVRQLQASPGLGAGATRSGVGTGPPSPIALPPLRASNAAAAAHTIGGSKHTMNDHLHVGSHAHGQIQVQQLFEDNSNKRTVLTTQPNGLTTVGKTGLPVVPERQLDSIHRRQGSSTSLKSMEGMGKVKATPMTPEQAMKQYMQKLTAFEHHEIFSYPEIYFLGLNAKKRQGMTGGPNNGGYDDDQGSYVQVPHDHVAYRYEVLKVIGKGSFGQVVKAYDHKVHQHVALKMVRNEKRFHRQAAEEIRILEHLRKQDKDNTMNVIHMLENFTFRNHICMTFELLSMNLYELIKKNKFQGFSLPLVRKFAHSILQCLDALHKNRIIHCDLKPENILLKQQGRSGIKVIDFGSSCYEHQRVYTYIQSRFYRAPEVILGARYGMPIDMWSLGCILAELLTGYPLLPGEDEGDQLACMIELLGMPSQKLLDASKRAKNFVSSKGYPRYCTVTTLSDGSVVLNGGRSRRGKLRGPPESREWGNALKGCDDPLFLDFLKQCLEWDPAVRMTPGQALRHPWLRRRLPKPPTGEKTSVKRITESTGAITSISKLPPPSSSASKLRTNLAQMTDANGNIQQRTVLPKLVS

[4] = biological target: Mitogen-activated protein kinase 15 (Homo sapiens) (UniProt Q8TD08); conditions: Compound concentration 1000.0 nM
Mitogen-activated protein kinase 15 (Homo sapiens), sequence (Q8TD08 whole entry): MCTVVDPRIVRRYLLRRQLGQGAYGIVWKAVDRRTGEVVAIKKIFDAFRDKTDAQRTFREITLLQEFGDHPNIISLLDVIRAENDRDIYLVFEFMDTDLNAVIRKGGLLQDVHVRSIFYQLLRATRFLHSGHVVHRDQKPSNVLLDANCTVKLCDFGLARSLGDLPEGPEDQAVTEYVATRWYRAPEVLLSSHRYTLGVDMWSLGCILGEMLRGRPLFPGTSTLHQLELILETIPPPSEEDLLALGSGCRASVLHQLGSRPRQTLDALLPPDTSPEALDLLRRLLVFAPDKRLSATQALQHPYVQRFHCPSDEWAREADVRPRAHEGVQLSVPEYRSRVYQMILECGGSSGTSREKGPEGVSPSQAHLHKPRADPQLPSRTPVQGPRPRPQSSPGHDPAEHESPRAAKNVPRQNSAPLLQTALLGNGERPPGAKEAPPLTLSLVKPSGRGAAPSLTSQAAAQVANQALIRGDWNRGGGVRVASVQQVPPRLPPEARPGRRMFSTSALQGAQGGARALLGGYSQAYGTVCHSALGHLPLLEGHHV

[5] = system: Receptor-type tyrosine-protein kinase FLT3 (Homo sapiens), P36888 [R834Q]; conditions: Compound concentration 1000.0 nM
[6] = biological target: T2, Serine/threonine-protein kinase ICK (Homo sapiens) (UniProt Q9UPZ9); conditions: Compound concentration 1000.0 nM
T2 sequence (whole entry): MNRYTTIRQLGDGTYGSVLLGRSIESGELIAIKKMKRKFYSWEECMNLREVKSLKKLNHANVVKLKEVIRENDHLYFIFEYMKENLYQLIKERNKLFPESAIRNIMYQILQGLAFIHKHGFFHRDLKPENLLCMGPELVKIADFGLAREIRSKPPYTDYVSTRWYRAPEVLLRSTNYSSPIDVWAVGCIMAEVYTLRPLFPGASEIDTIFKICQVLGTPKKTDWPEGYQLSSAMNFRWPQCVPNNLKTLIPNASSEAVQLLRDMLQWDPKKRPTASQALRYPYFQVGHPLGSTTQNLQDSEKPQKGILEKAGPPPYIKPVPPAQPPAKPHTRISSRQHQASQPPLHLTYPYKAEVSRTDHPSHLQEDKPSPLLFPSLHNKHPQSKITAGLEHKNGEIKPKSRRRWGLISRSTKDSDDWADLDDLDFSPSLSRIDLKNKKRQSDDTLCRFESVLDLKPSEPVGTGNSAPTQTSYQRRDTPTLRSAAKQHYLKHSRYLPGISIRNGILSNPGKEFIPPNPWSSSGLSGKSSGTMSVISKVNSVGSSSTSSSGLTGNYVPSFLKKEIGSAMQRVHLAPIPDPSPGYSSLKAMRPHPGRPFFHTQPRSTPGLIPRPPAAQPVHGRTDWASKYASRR

[7] = system: Mast/stem cell growth factor receptor Kit (Homo sapiens), P10721 [V559D,T670I]; conditions: Compound concentration 1000.0 nM
[8] = biological target: Leucine-rich repeat serine/threonine-protein kinase 2 (Homo sapiens) (UniProt Q5S007); conditions: Compound concentration 1000.0 nM
[9] = biological target: Myosin light chain kinase 2, skeletal/cardiac muscle (Homo sapiens) (UniProt Q9H1R3); conditions: Compound concentration 1000.0 nM
[10] = biological target: Serine/threonine-protein kinase PAK 1 (Homo sapiens) (UniProt Q13153); conditions: Compound concentration 1000.0 nM
Serine/threonine-protein kinase PAK 1 (Homo sapiens), sequence (Q13153 whole entry): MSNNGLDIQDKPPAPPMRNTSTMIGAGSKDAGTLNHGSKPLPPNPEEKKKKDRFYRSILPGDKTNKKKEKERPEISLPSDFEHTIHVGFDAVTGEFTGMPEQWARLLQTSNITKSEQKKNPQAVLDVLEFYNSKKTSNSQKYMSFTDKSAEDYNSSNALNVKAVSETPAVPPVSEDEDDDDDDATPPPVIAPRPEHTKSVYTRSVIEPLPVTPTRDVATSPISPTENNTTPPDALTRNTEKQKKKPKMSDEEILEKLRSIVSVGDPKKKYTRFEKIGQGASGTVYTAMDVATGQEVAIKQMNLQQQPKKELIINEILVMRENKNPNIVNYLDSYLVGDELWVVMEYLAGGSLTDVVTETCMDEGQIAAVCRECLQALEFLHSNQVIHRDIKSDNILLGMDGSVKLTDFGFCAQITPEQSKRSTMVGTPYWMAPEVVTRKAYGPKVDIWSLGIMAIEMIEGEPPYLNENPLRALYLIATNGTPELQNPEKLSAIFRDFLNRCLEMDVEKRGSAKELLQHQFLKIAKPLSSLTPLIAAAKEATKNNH

[11] = biological target: Cyclin-dependent kinase 17 (Homo sapiens) (UniProt Q00537); conditions: Compound concentration 1000.0 nM
[12] = biological target: Serine/threonine-protein kinase PLK2 (Homo sapiens) (UniProt Q9NYY3); conditions: Compound concentration 1000.0 nM
[13] = biological target: Serine/threonine-protein kinase D3 (Homo sapiens) (UniProt O94806); conditions: Compound concentration 1000.0 nM
[14] = biological target: T3, Dual specificity protein kinase TTK (Homo sapiens) (UniProt P33981); conditions: Compound concentration 1000.0 nM
T3 sequence (whole entry): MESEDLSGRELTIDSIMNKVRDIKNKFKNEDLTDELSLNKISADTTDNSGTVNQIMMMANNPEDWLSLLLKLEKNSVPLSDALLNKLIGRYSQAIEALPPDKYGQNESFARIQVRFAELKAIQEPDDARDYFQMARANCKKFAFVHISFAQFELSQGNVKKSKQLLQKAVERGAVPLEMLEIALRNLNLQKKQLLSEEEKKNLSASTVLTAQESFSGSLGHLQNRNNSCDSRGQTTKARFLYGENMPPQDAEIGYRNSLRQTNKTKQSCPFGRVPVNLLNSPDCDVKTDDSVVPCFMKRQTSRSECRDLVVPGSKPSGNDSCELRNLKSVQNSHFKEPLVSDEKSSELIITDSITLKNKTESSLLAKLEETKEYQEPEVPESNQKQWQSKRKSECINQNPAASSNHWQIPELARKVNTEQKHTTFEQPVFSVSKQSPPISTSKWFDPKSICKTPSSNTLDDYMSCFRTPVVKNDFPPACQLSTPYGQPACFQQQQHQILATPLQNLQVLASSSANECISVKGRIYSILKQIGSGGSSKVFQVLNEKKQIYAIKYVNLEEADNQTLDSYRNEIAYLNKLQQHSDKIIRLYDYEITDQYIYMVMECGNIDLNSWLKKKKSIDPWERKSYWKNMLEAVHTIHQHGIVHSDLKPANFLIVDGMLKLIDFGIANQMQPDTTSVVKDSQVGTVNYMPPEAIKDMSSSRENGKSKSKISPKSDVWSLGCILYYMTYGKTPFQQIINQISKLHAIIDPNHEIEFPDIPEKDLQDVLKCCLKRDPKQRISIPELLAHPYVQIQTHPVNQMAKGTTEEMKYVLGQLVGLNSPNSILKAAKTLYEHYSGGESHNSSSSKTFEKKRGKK

[15] = biological target: Serine/threonine-protein kinase WNK1 (Homo sapiens) (UniProt Q9H4A3); conditions: Compound concentration 1000.0 nM
Serine/threonine-protein kinase WNK1 (Homo sapiens), sequence (Q9H4A3 whole entry, looked up): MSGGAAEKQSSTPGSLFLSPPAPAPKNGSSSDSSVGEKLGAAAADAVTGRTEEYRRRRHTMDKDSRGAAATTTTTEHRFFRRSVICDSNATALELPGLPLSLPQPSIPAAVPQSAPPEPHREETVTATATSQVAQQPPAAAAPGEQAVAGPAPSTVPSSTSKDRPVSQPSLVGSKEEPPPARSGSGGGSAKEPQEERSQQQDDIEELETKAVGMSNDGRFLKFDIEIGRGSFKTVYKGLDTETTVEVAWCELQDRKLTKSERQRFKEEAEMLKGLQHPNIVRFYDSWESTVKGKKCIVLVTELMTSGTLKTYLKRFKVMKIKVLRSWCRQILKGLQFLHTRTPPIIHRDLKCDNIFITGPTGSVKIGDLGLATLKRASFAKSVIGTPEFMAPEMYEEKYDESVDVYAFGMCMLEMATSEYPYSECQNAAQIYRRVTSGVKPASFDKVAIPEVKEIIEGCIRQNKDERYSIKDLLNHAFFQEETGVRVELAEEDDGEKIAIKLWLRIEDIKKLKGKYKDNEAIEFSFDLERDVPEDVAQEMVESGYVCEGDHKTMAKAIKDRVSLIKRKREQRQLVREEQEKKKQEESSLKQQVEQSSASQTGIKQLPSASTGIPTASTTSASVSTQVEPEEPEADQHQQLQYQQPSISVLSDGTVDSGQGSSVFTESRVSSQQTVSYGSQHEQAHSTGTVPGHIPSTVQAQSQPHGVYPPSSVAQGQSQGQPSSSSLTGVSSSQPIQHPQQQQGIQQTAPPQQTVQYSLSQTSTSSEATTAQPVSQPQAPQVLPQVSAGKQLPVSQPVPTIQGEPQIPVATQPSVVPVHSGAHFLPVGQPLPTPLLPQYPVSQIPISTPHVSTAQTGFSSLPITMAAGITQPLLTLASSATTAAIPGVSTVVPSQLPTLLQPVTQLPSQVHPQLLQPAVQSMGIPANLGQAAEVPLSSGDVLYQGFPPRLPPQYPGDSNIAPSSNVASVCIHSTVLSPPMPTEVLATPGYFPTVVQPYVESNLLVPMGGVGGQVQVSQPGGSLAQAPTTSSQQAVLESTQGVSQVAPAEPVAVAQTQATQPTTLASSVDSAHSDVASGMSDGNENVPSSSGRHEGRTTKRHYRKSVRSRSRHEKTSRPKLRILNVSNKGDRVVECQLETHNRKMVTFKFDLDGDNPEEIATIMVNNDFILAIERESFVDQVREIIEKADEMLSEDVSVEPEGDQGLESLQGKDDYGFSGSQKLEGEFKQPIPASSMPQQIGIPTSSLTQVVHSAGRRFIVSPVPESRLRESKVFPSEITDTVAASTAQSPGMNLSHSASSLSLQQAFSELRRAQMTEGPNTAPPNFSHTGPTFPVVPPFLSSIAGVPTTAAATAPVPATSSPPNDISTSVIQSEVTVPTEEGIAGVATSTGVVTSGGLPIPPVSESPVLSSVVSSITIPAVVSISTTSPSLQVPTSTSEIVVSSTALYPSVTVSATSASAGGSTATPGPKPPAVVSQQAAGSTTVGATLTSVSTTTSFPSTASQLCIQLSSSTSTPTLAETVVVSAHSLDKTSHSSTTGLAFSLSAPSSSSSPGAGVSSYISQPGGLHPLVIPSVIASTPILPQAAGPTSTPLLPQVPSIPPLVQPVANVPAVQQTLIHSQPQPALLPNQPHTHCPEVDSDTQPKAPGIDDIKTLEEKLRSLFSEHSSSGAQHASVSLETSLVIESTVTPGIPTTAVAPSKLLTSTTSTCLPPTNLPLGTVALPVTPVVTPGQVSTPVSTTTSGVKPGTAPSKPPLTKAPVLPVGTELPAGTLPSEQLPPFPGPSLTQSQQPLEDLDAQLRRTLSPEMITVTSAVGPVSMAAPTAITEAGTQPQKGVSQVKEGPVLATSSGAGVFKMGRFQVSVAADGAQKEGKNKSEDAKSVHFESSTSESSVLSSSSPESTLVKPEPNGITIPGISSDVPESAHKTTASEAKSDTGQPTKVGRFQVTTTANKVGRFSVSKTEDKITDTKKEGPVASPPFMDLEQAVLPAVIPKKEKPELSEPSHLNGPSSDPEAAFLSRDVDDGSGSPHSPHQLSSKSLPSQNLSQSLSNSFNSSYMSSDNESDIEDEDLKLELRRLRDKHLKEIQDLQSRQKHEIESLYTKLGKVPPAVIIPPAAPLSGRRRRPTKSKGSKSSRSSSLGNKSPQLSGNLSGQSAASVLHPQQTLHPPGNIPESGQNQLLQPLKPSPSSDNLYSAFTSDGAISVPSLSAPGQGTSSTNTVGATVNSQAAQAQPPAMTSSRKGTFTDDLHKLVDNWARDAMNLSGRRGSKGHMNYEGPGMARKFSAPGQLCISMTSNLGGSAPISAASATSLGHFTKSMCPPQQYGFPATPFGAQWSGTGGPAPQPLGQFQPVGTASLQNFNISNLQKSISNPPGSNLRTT

[16] = biological target: Delta-type opioid receptor (Homo sapiens) (UniProt P41143); conditions: Compound concentration 10.0 uM

Serine/threonine-protein kinase MRCK gamma (Homo sapiens), sequence (Q6DT37 whole entry): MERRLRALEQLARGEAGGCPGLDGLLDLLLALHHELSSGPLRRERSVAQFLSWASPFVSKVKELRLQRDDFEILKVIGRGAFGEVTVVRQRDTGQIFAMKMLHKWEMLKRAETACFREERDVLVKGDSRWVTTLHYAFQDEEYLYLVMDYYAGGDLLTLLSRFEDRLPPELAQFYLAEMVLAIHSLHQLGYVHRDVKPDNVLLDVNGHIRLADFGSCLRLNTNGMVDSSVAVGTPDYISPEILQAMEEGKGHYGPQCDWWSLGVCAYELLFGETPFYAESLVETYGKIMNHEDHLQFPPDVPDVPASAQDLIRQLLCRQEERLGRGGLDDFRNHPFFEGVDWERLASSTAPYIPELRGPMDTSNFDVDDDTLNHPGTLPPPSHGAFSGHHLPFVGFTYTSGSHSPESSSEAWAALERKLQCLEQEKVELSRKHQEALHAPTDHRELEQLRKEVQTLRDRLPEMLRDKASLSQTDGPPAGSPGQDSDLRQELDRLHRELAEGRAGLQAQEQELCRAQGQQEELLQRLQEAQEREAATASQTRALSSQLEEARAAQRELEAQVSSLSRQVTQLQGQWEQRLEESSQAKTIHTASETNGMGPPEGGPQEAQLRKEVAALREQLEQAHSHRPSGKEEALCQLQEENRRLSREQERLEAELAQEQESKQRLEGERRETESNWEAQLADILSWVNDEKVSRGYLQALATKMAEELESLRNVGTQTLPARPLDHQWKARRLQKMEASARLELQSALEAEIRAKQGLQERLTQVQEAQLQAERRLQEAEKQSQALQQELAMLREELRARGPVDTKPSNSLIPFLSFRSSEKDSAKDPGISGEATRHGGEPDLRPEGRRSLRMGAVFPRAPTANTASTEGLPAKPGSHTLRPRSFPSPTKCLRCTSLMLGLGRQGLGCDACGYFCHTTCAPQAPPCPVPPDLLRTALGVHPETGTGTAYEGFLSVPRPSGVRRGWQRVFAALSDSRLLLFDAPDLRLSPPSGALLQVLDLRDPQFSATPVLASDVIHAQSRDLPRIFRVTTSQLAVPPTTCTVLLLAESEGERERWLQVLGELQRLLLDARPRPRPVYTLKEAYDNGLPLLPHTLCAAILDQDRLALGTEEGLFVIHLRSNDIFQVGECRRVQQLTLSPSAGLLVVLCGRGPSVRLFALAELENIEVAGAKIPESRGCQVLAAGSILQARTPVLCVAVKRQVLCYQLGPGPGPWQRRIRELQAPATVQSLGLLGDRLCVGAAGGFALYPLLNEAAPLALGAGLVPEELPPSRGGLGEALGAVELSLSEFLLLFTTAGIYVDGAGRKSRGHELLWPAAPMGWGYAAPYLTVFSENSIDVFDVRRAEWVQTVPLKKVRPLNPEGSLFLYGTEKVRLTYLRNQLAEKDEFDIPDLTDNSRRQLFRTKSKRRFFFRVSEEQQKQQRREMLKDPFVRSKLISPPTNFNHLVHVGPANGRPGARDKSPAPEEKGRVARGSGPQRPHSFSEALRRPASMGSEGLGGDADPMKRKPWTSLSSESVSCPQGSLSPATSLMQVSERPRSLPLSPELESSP

CCc1ccccc1C(=O)Nc1n[nH]c2c(C)c(F)c(C3C(C#N)=C(C)N(C)C(C)=C3C#N)cc12 [BAY-3827]
inactive: residual activity [1] 100% | residual activity [2] 93% | residual activity [3] 82% | residual activity [4] 81% | residual activity [5] 89% | residual activity [6] 100% | residual activity [7] 98% | residual activity [8] 100% | residual activity [9] 80% | residual activity [10] 82% | residual activity [11] 93% | residual activity [12] 97% | residual activity [13] 88% | residual activity [14] 82% | residual activity [15] 100% | inhibition [16] 20.5%

CC1=C(C#N)C(c2ccc3c(c2)c(NC(=O)c2ccccc2C)nn3C)C(C#N)=C(C)N1 [BAY-974]
inactive: residual activity [1] 85% | residual activity [2] 92% | residual activity [3] 100% | residual activity [4] 89% | residual activity [5] 90% | residual activity [6] 97% | residual activity [7] 100% | residual activity [8] 88% | residual activity [9] 89% | residual activity [10] 100% | residual activity [11] 100% | residual activity [12] 74% | residual activity [13] 72% | residual activity [14] 82% | residual activity [15] 82% | inhibition [16] 17.7%
